The record followed here is patent US20260109695A1, “PEROXIREDOXIN 3 INHIBITORS AND METHODS OF USE FOR TREATING CANCER” (WAKE FOREST UNIVERSITY HEALTH SCIENCES, priority 2022, published 2026).

One series is described as follows: Solubility Assay. It counts as physicochemical. The settings on record: 100 mM NaCl buffer, aqueous with cosolvent or surfactant or cyclodextrin, kinetic from dmso stock, 20 mM HEPES, pH 7.5, 18-24 hours at ambient temperature, read-out: Solubility. The protocol: A 20 mM stock solution was made for each compound in DMSO. To measure solubility, 0.03-0.05 mL of the stock was added to 0.27 mL 20 mM HEPES, 100 mM NaCl, pH 7.5. The solution was mixed and rotated 18-24 hours at ambient temperature. The next day, solutions were centrifuged for 10 min at 20,000×g at 24° C. to remove insoluble, solid material. Next, 100 μL of the supernatant containing the soluble compound was added to 900 μL DMSO and High Performance Liquid Chromatography was performed as described in Table 1 and either HPLC gradient 1 (Table 2) for HPLC gradient 2 (Table 3). For each analog, a 200 μM standard and a 20 μM standard were prepared and run in parallel (standards were dissolved completely in 100% DMSO). The amount of compound in the experimental sample was calculated by comparing the area under the curve for compound peak to the area for the closest standard and correcting for dilution.

For series [1], the system named is Enterococcus hirae (ATCC #10541). Put plainly: Antimicrobial Activity Assay. The settings on record: Enterococcus hirae, minimal inhibitory concentration; for MIC: ATCC10541, read-out: Antimicrobial Activity. The class given is cell-based. The protocol:
The overnight growth was then diluted into growth media to make a single solution of E. hirae with a final optical density at 600 nm=0.02 AU. A 20 mM stock solution of Thiostrepton in DMSO was made and used to make multiple dilutions of TS in DMSO. Each TS dilution (0.1 mL) was then added to a test tube containing 10 mL of the diluted E. hirae and grown at 37° C. overnight while shaking at 180 rpm. The next morning, each tube was visually inspected to determine if the cells grew. Final concentrations tested were 0.120, 0.090, 0.075, 0.060, 0.045, 0.030, and 0.015 μM TS. […] Three replicates were made on three separate days (n=9). […] For TS analogs, the dilute E. hirae was treated with 20 µM final concentration of each analog (three replicates each). […] DMSO was used as a positive control (complete cell growth) and 20 µM thiostrepton was used as a negative control.

The next series concerns the target T1, purified human PRX3 (Homo sapiens, UniProt P30048).
T1 construct: made in house
T1 sequence (P30048 62-256): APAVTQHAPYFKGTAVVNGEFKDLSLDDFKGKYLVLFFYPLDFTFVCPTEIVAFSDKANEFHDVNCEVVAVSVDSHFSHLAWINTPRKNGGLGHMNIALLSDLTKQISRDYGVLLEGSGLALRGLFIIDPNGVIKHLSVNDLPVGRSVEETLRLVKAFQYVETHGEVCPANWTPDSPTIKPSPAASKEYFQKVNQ
The series is described as follows: Biochemical PRX3 Inhibition Assay (crosslink by SDS-PAGE, mono-adduct by MALDI-TOF MS). The settings on record: 1-2 hr at 37° C. The protocol: (§1) To test the activity of compounds, two complimentary assays were used as described below. The Biochemical PRX3 Inhibition Assay tests the ability of each compound to crosslink PRX3 in a simple, in vitro system. In the Cellular Activity Assay, we are testing the ability of compounds to kill SK-OV-3 ovarian cancer cells.
This assay tests the ability of each compound to form a covalent adduct with PRX3. The assay is performed as described in Nelson et al. (2021) Antioxidants (Basel) 10, 150; and Cunniff et al. (2015) PloS one 10, e0127310, and follows the appearance of non-reducible PRX3 crosslinks by SDS PAGE gel electrophoresis and follows the appearance of single PRX3 adducts by mass spectrometry. For this assay, purified human PRX3, hydrogen peroxide (the PRX3 substrate) and all the components required to enable PRX3 to catalytically cycle (thioredoxin-thioredoxin reductase-NAPDH system) are included (details below).
The biochemical PRX3 Inhibition assay contains 100 µM PRX3, 50 µM human TRX2, […] mouse thioredoxin reductase, and a NADPH regenerating system composed of 3.2 mM glucose 6-phosphate, 3.2 U/ml glucose 6-phosphate dehydrogenase and 0.4 mM NADPH. Samples are incubated for 1-2 hr at 37° C. with either 0.2 mM TS (positive control), compounds or an equivalent volume of DMSO (negative control). During this incubation, hydrogen peroxide is added to induce turnover of PRX3. Reactions are stopped by the addition of a buffer containing 100 mM dithiolthreitol (to break disulfide bonds) and SDS (detergent to denature proteins). NADPH, Glucose 6-Phosphate, and glucose 6-phosphate dehydrogenase were purchased from Sigma Aldrich. PRX3, thioredoxin, and thioredoxin reductase were all purified to >98% purity in the Lowther laboratory according to protocols referenced in Nelson et al. (2021) Antioxidants (Basel) 10, 150; and Cunniff et al. (2015) PloS one 10, e0127310.
To measure the amount of PRX3 crosslink, proteins in the reaction were separated by SDS-polyacrlyamide gel electrophoresis and stained for total protein using GelCode Blue (Life Technologies). The amount of unmodified PRX3 and TS-PRX3 crosslink was measured by densiometric analysis of the signal for the PRX3 band running at the MW of a PRX3 crosslink (−46 kDa) compared to the PRX3 signal at the MW of the un-modified PRX3 (˜23 kD).
To measure covalent adduct formation on a single PRX3 monomer, each reaction was exchanged into a mass spectrometry compatible buffer containing 40 mM ammonium citrate, pH 8.3 made in HPLC water. Sample was mixed 1:1 with a matrix solution containing 30 mg/mL sinapinic acid in 70% (vol/vol) acetonitrile, 0.2% formic acid and spotted to onto the sample plate. PRX3 mass was measured by MALDI-TOF MS analysis on a Bruker Daltonics MALDI-TOF MS spectrometer. Spectra were analyzed in FLEXAnalysis Software. The intensity of the reduced PRX3 peak (SH) and intensity of the analog adduct peak was determined and corrected for background signal at the adduct peak in the DMSO control. The fraction of single analog adduct in the monomer peak was determined by dividing the intensity of the adduct peak by the summed intensity of the SH and adduct peaks.

Series [2] has as its system human SK-OV-3 ovarian cancer cells. The series is described as follows: Cellular Activity Assay (cytotoxicity, crystal violet). The class given is cell-based. The note with it: SK-OV-3 cells, 48 hr treatment.
From the text: as §1
The Cellular Activity Assay measures the EC50 of each compound in human SK-OV-3 ovarian cancer cells TS to be taken into the cell, transported to the mitochondria, and crosslink PRX3.
The cytotoxicity of compounds was measured as described in Nelson et al. (2021) Antioxidants (Basel) 10, 150; Cunniff et al. (2015) PloS one 10, e0127310; and Newick et al. (2012) PloS one 7, e39404. SK-OV-3 is an adherent, epithelial, adenocarcenoma cell line obtained from ATCC (ref #: HTB-77). SK-OV-3 cells are resistant to the commonly used chemotherapeutics, cis-platinum and doxorubicin. For this PRX3 crosslinking assay, SK-OV-3 cells were plated in a 96-well plate. After 24 h recovery, the cells were treated for 48 hr with multiple concentrations of each compound ranging from 0.1-100 μM.
Cells were washed with PBS to remove dead cells and the remaining live cells were fixed with 3.0% formaldehyde and stained with 0.1% crystal violet. The amount of crystal violet was determined by reading the absorbance at 540 nm (crystal violet dye dissolved in 100% methanol) using a plate reader. The signal for crystal violet dye is proportional to the biomass of remaining live cells. GraphPad Prism9 software was used to calculate the effective inhibitory concentration (EC50) of test compounds. Results for each compound, are normalized to the amount of cells in control wells treated with the equivalent concentration of DMSO (negative control). TS or Compound B were included in each set of assays as a positive control.

≈ marks a conversion by molar mass, not a printed value.

As a reminder, the solubility is how much of the substance goes into solution per volume. As a reminder, the EC50 is the concentration at which the effect is half-maximal. A higher EC50 goes with weaker potency. As to `C=C(NC(=O)c1csc(N2CCC(NC(=O)OC(C)(C)C)CC2)n1)C(=O)NC(=C)C(=O)N1CCCCC1` [Compound 1, Tert-butyl (1-(4-((3-oxo-3-((3-oxo-3-(piperidin-1-yl)prop-1-en-2-yl)amino)prop-1-en-2-yl)carbamoyl)thiazol-2-yl)piperidin-4-yl)carbamate], the solubility in the series “Solubility Assay” is less than 100 µM. Moreover, the MIC in series [1] was more than 20 µM. Further, on purified human PRX3, the “PRX3 Inhibition (Crosslink + Mono-adduct)” value (shortened to “PRX3 Inhibition”) was “+++ (>90%)”. Further, the EC50 in series [2] was in the range of 10 to 25 µM.

Consider `C=C(NC(=O)c1csc(N2CCC(NC(=O)OC(C)(C)C)CC2)n1)C(=O)NC(=C)C(=O)OCc1ccccc1` [Compound 2, Benzyl 2-(2-(2-(4-((tert-butoxycarbonyl)amino)piperidin-1-yl)thiazole-4-carboxamido)acrylamido)acrylate], for which the solubility in “Solubility Assay” is less than 100 µM. Moreover, the MIC in series [1] was more than 20 µM. The “PRX3 Inhibition” value on purified human PRX3 is on record as “++ (50-90%)”. This molecule returned an EC50 in series [2] of 1 to 10 µM.

On to `C=C(NC(=O)c1csc(N2CCC(NC(=O)OC(C)(C)C)CC2)n1)C(=O)NC(=C)C(=O)OCCOC` [Compound 3, 2-Methoxyethyl 2-(2-(2-(4-((tert-butoxycarbonyl)amino)piperidin-1-yl)thiazole-4-carboxamido)acrylamido)acrylate], for which the solubility in the series “Solubility Assay” is 100 to 1000 µM (≈ 52.4 to 524 µg/mL). In series [1], the MIC was more than 20 µM. Moreover, the “PRX3 Inhibition” value at purified human PRX3 is listed as “+++ (>90%)”. In series [2], this molecule showed an EC50 of 10 to 25 µM.

In the case of `C=C(NC(=O)C(=C)NC(=O)c1csc(N2CCC(NC(=O)OC(C)(C)C)CC2)n1)C(=O)NCCOC` [Compound 4, Tert-butyl (1-(4-((3-((3-((2-methoxyethyl)amino)-3-oxoprop-1-en-2-yl)amino)-3-oxoprop-1-en-2-yl)carbamoyl)thiazol-2-yl)piperidin-4-yl)carbamate], the solubility in the series “Solubility Assay” fell in the range of 100 to 1000 µM (≈ 52.3 to 523 µg/mL). Further, in series [1], the MIC was more than 20 µM. On purified human PRX3, the “PRX3 Inhibition” value is recorded as “+++ (>90%)”. The molecule further yielded a concentration giving a half-maximal response (EC50) in series [2] of 10 to 25 µM.

With `C=C(NC(=O)c1csc(N2CCC(NC(=O)OC(C)(C)C)CC2)n1)C(=O)NC(=C)C(=O)OC1CCOCC1` [Compound 5, Tetrahydro-2H-pyran-4-yl 2-(2-(2-(4-((tert-butoxycarbonyl)amino)piperidin-1-yl)thiazole-4-carboxamido)acrylamido)acrylate], the solubility in “Solubility Assay” was less than 100 µM. In series [1], the MIC was more than 20 µM. Further, the “PRX3 Inhibition” value at purified human PRX3 was “+++ (>90%)”. The 50% effective concentration (EC50) in series [2] lay within 1 to 10 µM.

Consider `C=C(NC(=O)c1csc(N2CCC(NC(=O)OC(C)(C)C)CC2)n1)C(=O)NC(=C)C(=O)OCC1CCOCC1` [Compound 6, (Tetrahydro-2H-pyran-4-yl)methyl 2-(2-(2-(4-((tert-butoxycarbonyl)amino)piperidin-1-yl)thiazole-4-carboxamido)acrylamido)acrylate], for which, in “Solubility Assay”, the solubility was less than 100 µM. The MIC in series [1] is more than 20 µM. Besides, the “PRX3 Inhibition” value at purified human PRX3 is listed as “+++ (>90%)”. In addition, the EC50 in series [2] fell in the range of 1 to 10 µM.

`C=C(NC(=O)c1csc(N2CCC(NC(=O)OC(C)(C)C)CC2)n1)C(=O)NC(=C)C(=O)N(C)CCOC` [Compound 7, Tert-butyl (1-(4-((3-((3-((2-methoxyethyl)(methyl)amino)-3-oxoprop-1-en-2-yl)amino)-3-oxoprop-1-en-2-yl)carbamoyl)thiazol-2-yl)piperidin-4-yl)carbamate]: the solubility in “Solubility Assay” was in the range of 100 to 1000 µM (≈ 53.7 to 537 µg/mL). For the same molecule, the MIC in series [1] was more than 20 µM. Besides, the “PRX3 Inhibition” value on purified human PRX3 is reported as “+++ (>90%)”. Moreover, the concentration for a half-maximal effect (EC50) in series [2] was 25 to 100 µM.

Take `C=C(NC(=O)c1csc(N2CCC(NC(=O)OC(C)(C)C)CC2)n1)C(=O)NC(=C)c1nnc(C2CCOCC2)o1` [Compound 8, Tert-butyl (1-(4-((3-oxo-3-((1-(5-(tetrahydro-2H-pyran-4-yl)-1,3,4-oxadiazol-2-yl)vinyl)amino)prop-1-en-2-yl)carbamoyl)thiazol-2-yl)piperidin-4-yl)carbamate]: the solubility in the series “Solubility Assay” was less than 100 µM. In series [1], the MIC is more than 20 µM. Also, at purified human PRX3, the “PRX3 Inhibition” value was “+++ (>90%)”. In addition, the EC50 in series [2] is 10 to 25 µM.

As for `C=C(NC(=O)c1csc(N2CCC(NC(=O)OC(C)(C)C)CC2)n1)C(=O)NC(=C)C(=O)OC` [Compound A, Methyl 2-(2-(2-(4-((tert-butoxycarbonyl)amino)piperidin-1-yl)thiazole-4-carboxamido)acrylamido)acrylate, reference compound], the solubility in “Solubility Assay” is less than 100 µM. In addition, the “Antimicrobial Activity” value in series [1] is reported as “− (>20 μM)”.

On to `C=C(NC(=O)c1csc(-c2ccc(NC(=O)CCCCCBr)cc2)n1)C(=O)NC(=C)C(=O)OC` [Compound B, Methyl 2-(2-(2-(4-(6-bromohexanamido)phenyl)thiazole-4-carboxamido)acrylamido)acrylate, reference compound], for which the solubility in the series “Solubility Assay” was less than 100 µM.
